Measured values as given in patent US11440899B2, “Pyrimidine TBK/IKKe inhibitor compounds and uses thereof” (Merck Patent GmbH, priority 2017, dated 2022).

Columns and labels:
TBK1 = TBK1 (Homo sapiens (Human), UniProt Q9UHD2); assay: TBK Biochemical Assay
Procedure: Example 106: TBK Biochemical Assay Test compounds were transferred into Labcyte polypropylene 384 well plates ([…]-25) and diluted to 3 mM using DMSO. 3 mM test compounds were dispensed using Labcyte ECHO dose response module into Greiner 784075 plates (columns 3-12 and 13-22, 10 point 1:4) so that high concentration was 30 uM final. 100 uM of a reference compound (1 uM final high concentration). Backfilling was performed if necessary so that all wells contain 1% DMSO final: add 75 nl DMSO/well into columns 1, 2 and 24 using Labcyte Echo. add 75 nl 1.0 mM staurosporine/well into column 23 using Labcyte Echo (10 uM final) add 4.5 ul enzyme/well using multidrop dispenser add 3 ul substrate/well using multidrop dispenser incubate at 25° C. in Heidolph incubator for 90 min. add 7.5 ul 2× stop buffer using multidrop dispenser read on labchip ez reader II using TBK1.job Raw data files were opened in the Caliper LabChip Reviewer program (Version 3.0.265.0 SP2) and peak assignments were adjusted to reflect “substrate first” with the software's post-run analysis options. A spline-fit baseline was applied using the software's analysis algorithm.

IKKe = IKKe (Homo sapiens (Human), UniProt Q14164); assay: IKKe Biochemical Assay
Sequence of IKKe (Q14164 whole entry, species assumed): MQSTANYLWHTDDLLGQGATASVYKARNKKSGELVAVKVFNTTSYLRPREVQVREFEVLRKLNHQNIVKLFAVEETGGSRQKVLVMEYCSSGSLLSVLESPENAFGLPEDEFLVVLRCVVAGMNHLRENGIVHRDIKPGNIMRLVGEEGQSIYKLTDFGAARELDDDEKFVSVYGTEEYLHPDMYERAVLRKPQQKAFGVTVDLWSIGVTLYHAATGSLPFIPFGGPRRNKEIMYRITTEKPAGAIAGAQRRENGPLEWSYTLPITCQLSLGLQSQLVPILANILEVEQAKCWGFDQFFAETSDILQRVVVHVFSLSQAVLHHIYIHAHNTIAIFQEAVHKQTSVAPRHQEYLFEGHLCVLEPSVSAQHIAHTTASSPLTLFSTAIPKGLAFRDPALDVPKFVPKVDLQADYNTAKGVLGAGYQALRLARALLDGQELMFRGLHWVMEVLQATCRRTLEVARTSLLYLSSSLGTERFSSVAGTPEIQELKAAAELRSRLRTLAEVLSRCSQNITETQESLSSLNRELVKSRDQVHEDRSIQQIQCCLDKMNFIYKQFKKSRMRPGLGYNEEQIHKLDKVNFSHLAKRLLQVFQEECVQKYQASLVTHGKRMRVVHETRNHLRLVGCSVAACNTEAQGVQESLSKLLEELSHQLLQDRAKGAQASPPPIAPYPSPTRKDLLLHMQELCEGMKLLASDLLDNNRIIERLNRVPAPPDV
Procedure: IKKe Biochemical Assay Test compounds were transferred into Labcyte polypropylene 384 well plates ([…]-25) and diluted to 3 mM using DMSO. 3 mM test compounds were dispensed using Labcyte ECHO dose response module into Greiner 784075 plates (columns 3-12 and 13-22, 10 point 1:4) so that high concentration was 30 uM final. 100 uM of a reference compound (1 uM final high concentration). Backfilling was performed if necessary so that all wells contain 1% DMSO final: add 75 nl DMSO/well into columns 1, 2 and 24 using Labcyte Echo. add 75 nl 1.0 mM staurosporine/well into column 23 using Labcyte Echo (10 uM final) add 4.5 ul enzyme/well using multidrop dispenser add 3 ul substrate/well using multidrop dispenser incubate at 25° C. for 90 min. add 7.5 ul 2× stop buffer read on labchip ez reader II using IKKε. job Raw data files were opened in the Caliper LabChip Reviewer program (Version 3.0.265.0 SP2) and peak assignments were adjusted to reflect “substrate first” with the software's post-run analysis options. A spline-fit baseline was applied using the software's analysis algorithm.

Sequence of TBK1 (Q9UHD2 whole entry, species assumed): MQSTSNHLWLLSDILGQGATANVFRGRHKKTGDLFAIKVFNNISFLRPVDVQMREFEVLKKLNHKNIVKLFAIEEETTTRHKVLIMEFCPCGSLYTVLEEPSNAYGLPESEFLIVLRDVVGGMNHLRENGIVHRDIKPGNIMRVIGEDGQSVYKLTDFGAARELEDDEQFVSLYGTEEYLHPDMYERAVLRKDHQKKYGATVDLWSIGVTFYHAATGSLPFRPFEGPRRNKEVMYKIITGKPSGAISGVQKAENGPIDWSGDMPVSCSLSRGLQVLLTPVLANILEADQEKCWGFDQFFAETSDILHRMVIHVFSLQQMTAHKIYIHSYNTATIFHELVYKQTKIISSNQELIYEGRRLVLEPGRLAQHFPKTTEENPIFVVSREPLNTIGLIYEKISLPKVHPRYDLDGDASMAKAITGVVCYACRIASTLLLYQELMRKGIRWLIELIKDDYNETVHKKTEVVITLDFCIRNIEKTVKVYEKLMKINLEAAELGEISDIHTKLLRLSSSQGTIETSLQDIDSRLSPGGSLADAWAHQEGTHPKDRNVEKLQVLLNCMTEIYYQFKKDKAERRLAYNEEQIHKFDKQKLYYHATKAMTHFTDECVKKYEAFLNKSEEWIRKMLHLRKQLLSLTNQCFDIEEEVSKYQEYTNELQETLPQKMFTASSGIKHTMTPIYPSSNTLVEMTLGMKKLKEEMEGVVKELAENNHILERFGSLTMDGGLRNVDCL

| SMILES | IC50 (TBK1) | IC50 (IKKe) |
| --- | --- | --- |
| COc1nc(Nc2cc(-c3ccc(OC4CCOCC4)c(C#N)n3)ncn2)ccc1C1CCN(C)CC1 [Example 25, 6-(6-[[6-methoxy-5-(1-methylpiperidin-4-yl)pyridin-2-yl]amino]pyrimidin-4-yl)-3-(oxan-4-yloxy)pyridine-2-carbonitrile] | 1000 to 5000 nM | 1000 to 5000 nM |
| COc1nc(Nc2cc(-c3cc(C#N)c(OC4CCOCC4)cn3)ncn2)ccc1C(=O)N(C)C [Example 26, 6-([6-[4-cyano-5-(oxan-4-yloxy)pyridin-2-yl]pyrimidin-4-yl]amino)-2-methoxy-N,N-dimethylpyridine-3-carboxamide] | < 100 nM | < 100 nM |
| COc1nc(Nc2cc(-c3ccc(OC4CCOCC4)c(C#N)c3)ncn2)ccc1C1CCN(CC(F)(F)F)CC1 [Example 27, 5-[6-([6-methoxy-5-[1-(2,2,2-trifluoroethyl)piperidin-4-yl]pyridin-2-yl]amino)pyrimidin-4-yl]-2-(oxan-4-yloxy)benzonitrile] | 100 to 1000 nM | 100 to 1000 nM |
| COc1nc(Nc2cc(-c3ccc(OC4CCOCC4)c(C#N)c3)ncn2)ccc1C1CCN(CC(F)F)CC1 [Example 28, 5-[6-([5-[1-(2,2-difluoroethyl)piperidin-4-yl]-6-methoxypyridin-2-yl]amino)pyrimidin-4-yl]-2-(oxan-4-yloxy)benzonitrile] | < 100 nM | < 100 nM |
| CN1CCN(c2ccc(Nc3cc(-c4ccc(OC5CCOCC5)c(C#N)c4)ncn3)nc2)CC1 [Example 29, 5-(6-[[5-(4-methylpiperazin-1-yl)pyridin-2-yl]amino]pyrimidin-4-yl)-2-(oxan-4-yloxy)benzonitrile] | < 100 nM | < 100 nM |
| CN(C)C(=O)c1ccc(Nc2cc(-c3ccc(OC4CCOCC4)c(C#N)c3)ncn2)nc1 [Example 30, 6-([6-[3-cyano-4-(oxan-4-yloxy)phenyl]pyrimidin-4-yl]amino)-N,N-dimethylpyridine-3-carboxamide] | < 100 nM | < 100 nM |
| COc1cc(Nc2cc(-c3ccc(OC4CCOCC4)c(C#N)c3)ncn2)ncc1C(=O)N(C)C [Example 31, 6-([6-[3-cyano-4-(oxan-4-yloxy)phenyl]pyrimidin-4-yl]amino)-4-methoxy-N,N-dimethylpyridine-3-carboxamide] | < 100 nM | < 100 nM |
| COc1cc(Nc2cc(-c3ccc(OC4CCOCC4)c(C#N)c3)ncn2)cnc1C(=O)N(C)C [Example 32, 5-([6-[3-cyano-4-(oxan-4-yloxy)phenyl]pyrimidin-4-yl]amino)-3-methoxy-N,N-dimethylpyridine-2-carboxamide] | 1000 to 5000 nM | 1000 to 5000 nM |
| COc1cc(Nc2cc(-c3ccc(OC4CCOCC4)c(C#N)c3)ncn2)ncc1N1CCN(C)CC1 [Example 33, 5-(6-[[4-methoxy-5-(4-methylpiperazin-1-yl)pyridin-2-yl]amino]pyrimidin-4-yl)-2-(oxan-4-yloxy)benzonitrile] | < 100 nM | < 100 nM |
| COc1cc(Nc2cc(-c3ccc(OC4CCOCC4)c(C#N)c3)ncn2)cnc1N1CCN(C)CC1 [Example 34, 5-(6-[[5-methoxy-6-(4-methylpiperazin-1-yl)pyridin-3-yl]amino]pyrimidin-4-yl)-2-(oxan-4-yloxy)benzonitrile] | 100 to 1000 nM | 100 to 1000 nM |
| COc1cc(Nc2cc(-c3ccc(OC4CCOCC4)c(C#N)c3)ncn2)cnc1C1CCN(C)CC1 [Example 35, 5-(6-[[5-methoxy-6-(1-methylpiperidin-4-yl)pyridin-3-yl]amino]pyrimidin-4-yl)-2-(oxan-4-yloxy)benzonitrile] | 100 to 1000 nM | 100 to 1000 nM |
| COc1cc(Nc2cc(-c3ccc(OC4CCOCC4)c(C#N)c3)ncn2)ncc1C1CCN(C)CC1 [Example 36, 5-(6-[[4-methoxy-5-(1-methylpiperidin-4-yl)pyridin-2-yl]amino]pyrimidin-4-yl)-2-(oxan-4-yloxy)benzonitrile] | < 100 nM | < 100 nM |
| COc1nc(Nc2cc(-c3ccc(OC4CN(C)C4)c(C#N)c3)ncn2)ccc1C(=O)N(C)C [Example 37, 6-[(6-[3-cyano-4-[(1-methylazetidin-3-yl)oxy]phenyl]pyrimidin-4-yl)amino]-2-methoxy-N,N-dimethylpyridine-3-carboxamide] | 100 to 1000 nM | 100 to 1000 nM |
| COc1nc(Nc2cc(-c3ccc(OC4CN(C)C4)c(C#N)c3)ncn2)ccc1N1CCN(C)CC1 [Example 38, 5-(6-[[6-methoxy-5-(4-methylpiperazin-1-yl)pyridin-2-yl]amino]pyrimidin-4-yl)-2-[(1-methylazetidin-3-yl)oxy]benzonitrile] | < 100 nM | < 100 nM |
| COc1nc(Nc2cc(-c3ccc(OC4CCN(C)C4)c(C#N)c3)ncn2)ccc1C(=O)N(C)C (centres unmarked) [Example 39, 6-[(6-[3-cyano-4-[(1-methylpyrrolidin-3-yl)oxy]phenyl]pyrimidin-4-yl)amino]-2-methoxy-N,N-dimethylpyridine-3-carboxamide] | 100 to 1000 nM | 100 to 1000 nM |
| CN1CCN(c2ccc(Nc3cc(-c4ccc(OC5CCN(C)C5)c(C#N)c4)ncn3)nc2)CC1 (centres unmarked) [Example 40, 5-(6-[[5-(4-methylpiperazin-1-yl)pyridin-2-yl]amino]pyrimidin-4-yl)-2-[(1-methylpyrrolidin-3-yl)oxy]benzonitrile] | 100 to 1000 nM | 100 to 1000 nM |
| COc1nc(Nc2cc(-c3ccc(OC4CCN(C)CC4)c(C#N)c3)ncn2)ccc1C(=O)N(C)C [Example 41, 6-[(6-[3-cyano-4-[(1-methylpiperidin-4-yl)oxy]phenyl]pyrimidin-4-yl)amino]-2-methoxy-N,N-dimethylpyridine-3-carboxamide] | 1000 to 5000 nM | 1000 to 5000 nM |
| COc1nc(Nc2cc(-c3ccc(OC4CCN(C(=O)CO)CC4)c(C#N)c3)ncn2)ccc1C(=O)N(C)C [Example 42, 6-[[6-(3-cyano-4-[[1-(2-hydroxyacetyl)piperidin-4-yl]oxy]phenyl)pyrimidin-4-yl]amino]-2-methoxy-N,N-dimethylpyridine-3-carboxamide] | < 100 nM | < 100 nM |
| COc1nc(Nc2cc(-c3ccc(OC4CCN(C(=O)c5cnco5)CC4)c(C#N)c3)ncn2)ccc1C(=O)N(C)C [Example 43, 6-([6-[3-cyano-4-([1-[(1,3-oxazol-5-yl)carbonyl]piperidin-4-yl]oxy)phenyl]pyrimidin-4-yl]amino)-2-methoxy-N,N-dimethylpyridine-3-carboxamide] | < 100 nM | < 100 nM |
| COc1nc(Nc2cc(-c3ccc(OC4CCN(C(=O)c5cocn5)CC4)c(C#N)c3)ncn2)ccc1C(=O)N(C)C [Example 44, 6-([6-[3-cyano-4-([1-[(1,3-oxazol-4-yl)carbonyl]piperidin-4-yl]oxy)phenyl]pyrimidin-4-yl]amino)-2-methoxy-N,N-dimethylpyridine-3-carboxamide] | < 100 nM | < 100 nM |
| COc1nc(Nc2cc(-c3ccc(OC4CCN(C(=O)c5n[nH]c(C)n5)CC4)c(C#N)c3)ncn2)ccc1C(=O)N(C)C [Example 45, 6-([6-[3-cyano-4-([1-[(5-methyl-1H-1,2,4-triazol-3-yl)carbonyl]piperidin-4-yl]oxy)phenyl]pyrimidin-4-yl]amino)-2-methoxy-N,N-dimethylpyridine-3-carboxamide] | < 100 nM | < 100 nM |
| COc1nc(Nc2cc(-c3ccc(O[C@H]4CCNC[C@H]4F)c(C#N)c3)ncn2)ccc1C(=O)N(C)C [Example 46, 6-[[6-(3-cyano-4-[[(3R,4S)-3-fluoropiperidin-4-yl]oxy]phenyl)pyrimidin-4-yl]amino]-2-methoxy-N,N-dimethylpyridine-3-carboxamide] | 100 to 1000 nM | 100 to 1000 nM |
| COc1nc(Nc2cc(-c3ccc(O[C@H]4CCN(C(=O)CO)C[C@H]4F)c(C#N)c3)ncn2)ccc1C(=O)N(C)C [Example 47, 6-[[6-(3-cyano-4-[[(3R,4S)-3-fluoro-1-(2-hydroxyacetyl)piperidin-4-yl]oxy]phenyl)pyrimidin-4-yl]amino]-2-methoxy-N,N-dimethylpyridine-3-carboxamide] | < 100 nM | < 100 nM |
| COc1nc(Nc2cc(-c3ccc(OC4CCN(C)CC4(F)F)c(C#N)c3)ncn2)ccc1C(=O)N(C)C (centres unmarked) [Example 48, 6-[(6-[3-cyano-4-[(3,3-difluoro-1-methylpiperidin-4-yl)oxy]phenyl]pyrimidin-4-yl)amino]-2-methoxy-N,N-dimethylpyridine-3-carboxamide] | < 100 nM | < 100 nM |
| COc1nc(Nc2cc(-c3ccc(OC4CCN(C(=O)CO)CC4(F)F)c(C#N)c3)ncn2)ccc1C(=O)N(C)C (centres unmarked) [Example 49, 6-[[6-(3-cyano-4-[[3,3-difluoro-1-(2-hydroxyacetyl)piperidin-4-yl]oxy]phenyl)pyrimidin-4-yl]amino]-2-methoxy-N,N-dimethylpyridine-3-carboxamide] | < 100 nM | < 100 nM |
